Laboratory results: EP4603105A1, “PHARMACEUTICAL COMPOSITION CONTAINING CYCLIC COMPOUND HAVING SELECTIVE KRAS INHIBITORY EFFECT AGAINST HRAS AND NRAS” (CHUGAI SEIYAKU KABUSHIKI KAISHA, priority 2022, dated 2024)

Key:
[1] = biological target: GDP-bound NRAS wild-type protein (Homo sapiens, UniProt P01111); test: Binding to NRAS by surface plasmon resonance (SPR), KD and KD ratio to KRAS; settings: ratio of the KD value with respect to GDP-bound NRAS wild-type protein to the KD value with respect to KRAS
Sequence of GDP-bound NRAS wild-type protein (P01111 whole entry): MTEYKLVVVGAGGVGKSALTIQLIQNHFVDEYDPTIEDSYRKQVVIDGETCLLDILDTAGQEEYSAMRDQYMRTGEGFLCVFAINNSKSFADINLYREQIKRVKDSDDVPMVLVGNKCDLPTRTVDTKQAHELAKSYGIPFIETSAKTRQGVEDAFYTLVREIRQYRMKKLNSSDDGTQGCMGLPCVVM
Procedure, shortened: (§1)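 Compound binding is evaluated by SPR single-cycle kinetics, with concentrations added intermittently from low to high for 75 s each. Target surfaces carry GDP-loaded biotinylated Avi-RAS at about 100–300 RU, regenerated after each cycle; temperature 30°C. A 1:1 binding model gives KD.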

[2] = biological target: HRAS wild-type protein (Homo sapiens, UniProt P01112); test: Binding to HRAS by surface plasmon resonance (SPR), KD and KD ratio to KRAS; settings: ratio of the KD value with respect to HRAS wild-type protein to the KD value with respect to KRAS
Sequence of HRAS wild-type protein (P01112 whole entry): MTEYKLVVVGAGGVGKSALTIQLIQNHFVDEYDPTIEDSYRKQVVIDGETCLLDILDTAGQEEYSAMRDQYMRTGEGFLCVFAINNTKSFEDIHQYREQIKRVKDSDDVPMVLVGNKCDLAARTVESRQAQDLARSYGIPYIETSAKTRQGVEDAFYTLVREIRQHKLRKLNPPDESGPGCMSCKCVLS
Procedure, shortened: as §1

[3] = test system: human lung cancer strain NCI-H441; format: cell-based
Procedure, shortened: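 Proliferation was scored by […] measured after the reagent was added to cultures kept at 37°C in 5% carbon dioxide.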

Row | SMILES | NRAS /KRAS [1] | HRAS /KRAS [2] | IC50 [3] [nM]
1 | CC[C@H](C)[C@@H]1NC(=O)[C@H](CC(C)C)N(C)C(=O)C[C@@H](C(=O)N2CCOCC2)N(C)C(=O)[C@H](C2CCCC2)N(C)C(=O)C2(CCCC2)NC(=O)[C@@H]2CC(=O)CN2C(=O)[C@H](CCc2cc(F)c(C(F)(F)F)c(F)c2)NC(=O)CN(C)C(=O)[C@H](Cc2ccc(C(F)(F)F)cc2)N2CCCC[C@@H](C2=O)N(C)C(=O)CN(C)C1=O [PP0555] | B (a compound having 3 or more and less than 10 is denoted as B) | B (a compound having 3 or more and less than 10 is denoted as B) | 48.5
2 | CC[C@H](C)[C@@H]1NC(=O)[C@H](CC(C)C)N(C)C(=O)C[C@@H](C(=O)N2CCOCC2)N(C)C(=O)[C@H](C2CCCC2)N(C)C(=O)C2(CCCC2)NC(=O)[C@@H]2C[C@H](O)CN2C(=O)[C@H](CCc2cc(F)c(C(F)(F)F)c(F)c2)NC(=O)CN(C)C(=O)[C@H](Cc2ccc(C(F)(F)F)cc2)N2CCCC[C@@H](C2=O)N(C)C(=O)CN(C)C1=O [PP0556] | C (A compound having a KD ratio of 0.1 or more and less than 3 is denoted as C) | B (a compound having 3 or more and less than 10 is denoted as B) | 21
3 | CC[C@H](C)[C@@H]1NC(=O)[C@H](CC(C)C)N(C)C(=O)C[C@@H](C(=O)N2CCOCC2)N(C)C(=O)[C@H](C2CCCC2)N(C)C(=O)C2(CCCC2)NC(=O)[C@@H]2C[C@H](OC)CN2C(=O)[C@H](CCc2cc(F)c(C(F)(F)F)c(F)c2)NC(=O)CN(C)C(=O)[C@H](Cc2ccc(C(F)(F)F)cc2)N2CCCC[C@@H](C2=O)N(C)C(=O)CN(C)C1=O [PP0557] | B (a compound having 3 or more and less than 10 is denoted as B) | B (a compound having 3 or more and less than 10 is denoted as B) | 14.8
4 | CC[C@H](C)[C@@H]1NC(=O)[C@H](CC(C)C)N(C)C(=O)C[C@@H](C(=O)N2CCOCC2)N(C)C(=O)[C@H](C2CCCC2)N(C)C(=O)C2(CC2)NC(=O)[C@@H]2CCCN2C(=O)[C@H](CCc2cc(F)c(C(F)(F)F)c(F)c2)NC(=O)CN(C)C(=O)[C@H](Cc2ccc(C(F)(F)F)cc2)N2CCCC[C@@H](C2=O)N(C)C(=O)CN(C)C1=O [PP0559] | B (a compound having 3 or more and less than 10 is denoted as B) | B (a compound having 3 or more and less than 10 is denoted as B) | 23.1
5 | CC[C@H](C)[C@@H]1NC(=O)[C@H](CC(C)C)N(C)C(=O)C[C@@H](C(=O)N2CCOCC2)N(C)C(=O)[C@H](C2CCCC2)N(C)C(=O)C2(CCC2)NC(=O)[C@@H]2CCCN2C(=O)[C@H](CCc2cc(F)c(C(F)(F)F)c(F)c2)NC(=O)CN(C)C(=O)[C@H](Cc2ccc(C(F)(F)F)cc2)N2CCCC[C@@H](C2=O)N(C)C(=O)CN(C)C1=O [PP0560] | B (a compound having 3 or more and less than 10 is denoted as B) | B (a compound having 3 or more and less than 10 is denoted as B) | 5.2
6 | CC[C@H](C)[C@@H]1NC(=O)[C@H](CC(C)C)N(C)C(=O)C[C@@H](C(=O)N2CCOCC2)N(C)C(=O)[C@H](C2CCCC2)N(C)C(=O)C2(CCCCC2)NC(=O)[C@@H]2CCCN2C(=O)[C@H](CCc2cc(F)c(C(F)(F)F)c(F)c2)NC(=O)CN(C)C(=O)[C@H](Cc2ccc(C(F)(F)F)cc2)N2CCCC[C@@H](C2=O)N(C)C(=O)CN(C)C1=O [PP0561] | B (a compound having 3 or more and less than 10 is denoted as B) | B (a compound having 3 or more and less than 10 is denoted as B) | 20.9
7 | CC[C@H](C)[C@@H]1NC(=O)[C@H](CC(C)C)N(C)C(=O)C[C@@H](C(=O)N2CCOCC2)N(C)C(=O)[C@H](C2CCCC2)N(C)C(=O)C2(CC(F)(F)C2)NC(=O)[C@@H]2CCCN2C(=O)[C@H](CCc2cc(F)c(C(F)(F)F)c(F)c2)NC(=O)CN(C)C(=O)[C@H](Cc2ccc(C(F)(F)F)cc2)N2CCCC[C@@H](C2=O)N(C)C(=O)CN(C)C1=O [PP0562] | B (a compound having 3 or more and less than 10 is denoted as B) | B (a compound having 3 or more and less than 10 is denoted as B) | 4.4
8 | CC[C@H](C)[C@@H]1NC(=O)[C@H](CC(C)C)N(C)C(=O)C[C@@H](C(=O)N2CCOCC2)N(C)C(=O)[C@H](C2CCCC2)N(C)C(=O)C2(COC2)NC(=O)[C@@H]2CCCN2C(=O)[C@H](CCc2cc(F)c(C(F)(F)F)c(F)c2)NC(=O)CN(C)C(=O)[C@H](Cc2ccc(C(F)(F)F)cc2)N2CCCC[C@@H](C2=O)N(C)C(=O)CN(C)C1=O [PP0563] | B (a compound having 3 or more and less than 10 is denoted as B) | B (a compound having 3 or more and less than 10 is denoted as B) | 29
9 | CC[C@H](C)[C@@H]1NC(=O)[C@H](CC(C)C)N(C)C(=O)C[C@@H](C(=O)N2CCOCC2)N(C)C(=O)[C@H](C2CCCC2)N(C)C(=O)C2(CCOCC2)NC(=O)[C@@H]2CCCN2C(=O)[C@H](CCc2cc(F)c(C(F)(F)F)c(F)c2)NC(=O)CN(C)C(=O)[C@H](Cc2ccc(C(F)(F)F)cc2)N2CCCC[C@@H](C2=O)N(C)C(=O)CN(C)C1=O [PP0564] | B (a compound having 3 or more and less than 10 is denoted as B) | B (a compound having 3 or more and less than 10 is denoted as B) | 18.4
10 | CC[C@H](C)[C@@H]1NC(=O)[C@H](CC(C)C)N(C)C(=O)C[C@@H](C(=O)N2CCOCC2)N(C)C(=O)[C@H](C2CCCC2)N(C)C(=O)C(C)(C)NC(=O)[C@@H]2CCCN2C(=O)[C@H](CCc2cc(F)c(C(F)(F)F)c(F)c2)NC(=O)CN(C)C(=O)[C@H](Cc2ccc(C(F)(F)F)cc2)N2CCCC[C@@H](C2=O)N(C)C(=O)CN(C)C1=O [PP0565] | C (A compound having a KD ratio of 0.1 or more and less than 3 is denoted as C) | B (a compound having 3 or more and less than 10 is denoted as B) | 11.5
11 | CC[C@H](C)[C@@H]1NC(=O)[C@H](CC(C)C)N(C)C(=O)C[C@@H](C(=O)N2CCOCC2)N(C)C(=O)[C@H](C2CCC2)N(C)C(=O)C2(CCCC2)NC(=O)[C@@H]2CCCN2C(=O)[C@H](CCc2cc(F)c(C(F)(F)F)c(F)c2)NC(=O)CN(C)C(=O)[C@H](Cc2ccc(C(F)(F)F)cc2)N2CCCC[C@@H](C2=O)N(C)C(=O)CN(C)C1=O [PP0566] | B (a compound having 3 or more and less than 10 is denoted as B) | B (a compound having 3 or more and less than 10 is denoted as B) | 18.4
12 | CC[C@H](C)[C@@H]1NC(=O)[C@H](CC(C)C)N(C)C(=O)C[C@@H](C(=O)N2CCOCC2)N(C)C(=O)[C@H](C2CCCCC2)N(C)C(=O)C2(CCCC2)NC(=O)[C@@H]2CCCN2C(=O)[C@H](CCc2cc(F)c(C(F)(F)F)c(F)c2)NC(=O)CN(C)C(=O)[C@H](Cc2ccc(C(F)(F)F)cc2)N2CCCC[C@@H](C2=O)N(C)C(=O)CN(C)C1=O [PP0567] | B (a compound having 3 or more and less than 10 is denoted as B) | B (a compound having 3 or more and less than 10 is denoted as B) | 8.3
13 | CC[C@H](C)[C@@H]1NC(=O)[C@H](CC(C)C)N(C)C(=O)C[C@@H](C(=O)N2CCOCC2)N(C)C(=O)[C@H](CC(F)(F)F)N(C)C(=O)C2(CCCC2)NC(=O)[C@@H]2CCCN2C(=O)[C@H](CCc2cc(F)c(C(F)(F)F)c(F)c2)NC(=O)CN(C)C(=O)[C@H](Cc2ccc(C(F)(F)F)cc2)N2CCCC[C@@H](C2=O)N(C)C(=O)CN(C)C1=O [PP0568] | B (a compound having 3 or more and less than 10 is denoted as B) | B (a compound having 3 or more and less than 10 is denoted as B) | 79.5
14 | CC[C@H](C)[C@@H]1NC(=O)[C@H](CC(C)C)N(C)C(=O)C[C@@H](C(=O)N(C)C)N(C)C(=O)[C@H](C2CCCC2)N(C)C(=O)C2(CCCC2)NC(=O)[C@@H]2CCCN2C(=O)[C@H](CCc2cc(F)c(C(F)(F)F)c(F)c2)NC(=O)CN(C)C(=O)[C@H](Cc2ccc(C(F)(F)F)cc2)N2CCCC[C@@H](C2=O)N(C)C(=O)CN(C)C1=O [PP0569] | C (A compound having a KD ratio of 0.1 or more and less than 3 is denoted as C) | B (a compound having 3 or more and less than 10 is denoted as B) | 2.8
15 | CC[C@H](C)[C@@H]1NC(=O)[C@H](CC(C)C)N(C)C(=O)C[C@@H](C(=O)N2CCC2)N(C)C(=O)[C@H](C2CCCC2)N(C)C(=O)C2(CCCC2)NC(=O)[C@@H]2CCCN2C(=O)[C@H](CCc2cc(F)c(C(F)(F)F)c(F)c2)NC(=O)CN(C)C(=O)[C@H](Cc2ccc(C(F)(F)F)cc2)N2CCCC[C@@H](C2=O)N(C)C(=O)CN(C)C1=O [PP0570] | B (a compound having 3 or more and less than 10 is denoted as B) | B (a compound having 3 or more and less than 10 is denoted as B) | 7.5
16 | CC[C@H](C)[C@@H]1NC(=O)[C@H](CC(C)C)N(C)C(=O)C[C@@H](C(=O)N2CCCC2)N(C)C(=O)[C@H](C2CCCC2)N(C)C(=O)C2(CCCC2)NC(=O)[C@@H]2CCCN2C(=O)[C@H](CCc2cc(F)c(C(F)(F)F)c(F)c2)NC(=O)CN(C)C(=O)[C@H](Cc2ccc(C(F)(F)F)cc2)N2CCCC[C@@H](C2=O)N(C)C(=O)CN(C)C1=O [PP0571] | B (a compound having 3 or more and less than 10 is denoted as B) | B (a compound having 3 or more and less than 10 is denoted as B) | 5.4
17 | CC[C@H](C)[C@@H]1NC(=O)[C@H](CC(C)C)N(C)C(=O)C[C@@H](C(=O)N2CCCCC2)N(C)C(=O)[C@H](C2CCCC2)N(C)C(=O)C2(CCCC2)NC(=O)[C@@H]2CCCN2C(=O)[C@H](CCc2cc(F)c(C(F)(F)F)c(F)c2)NC(=O)CN(C)C(=O)[C@H](Cc2ccc(C(F)(F)F)cc2)N2CCCC[C@@H](C2=O)N(C)C(=O)CN(C)C1=O [PP0572] | B (a compound having 3 or more and less than 10 is denoted as B) | B (a compound having 3 or more and less than 10 is denoted as B) | 9
